SMILES strings stand for the structures. Where only a bound is given, the exact number is not on record here.

The results in this text go back to US7223759B2, “Antibacterial 3,5-diaminopiperidine-substituted aromatic and heteroaromatic compounds” (Anadys Pharmaceuticals, Inc., priority 2003, dated 2007).

The first test deals with Escherichia coli (ATCC25922) or Staphylococcus aureus (ATCC25923). Nature of the test: Antibacterial MIC, microdilution method in Mueller-Hinton medium. Particulars: Escherichia coli, 18 h, MIC in E. coli or S. aureus; two-fold serial dilutions 64 to 0.5 μg/ml in duplicate; 18 hours of incubation at 35° C.; read-out: Potency (MIC). In kind it is cell-based. A digest of the protocol:
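Two-fold serial dilutions from 64 to 0.5 μg/ml, in duplicate, by broth microdilution in Mueller-Hinton medium (NCCLS M7-A5). MIC taken as the lowest concentration preventing visible growth after 18 h at 35° C.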
On the technique in general: Dilution methods test growth across graded concentrations, often in twofold steps.
`Cl.Nc1nc(N2C[C@H](N)C[C@H](N)C2)nc(N2C[C@H](N)C[C@H](N)C2)n1` [4,6-Bis-((3R,5S)-3,5-diamino-piperidin-1-yl)-[1,3,5]triazin-2-ylamine]: the MIC is greater than 64 µg/mL.
The same measure, in the same setting: under `Cl.O=C(Nc1ccc(Nc2nc(N3CCCCC3)nc(N3CCCC3)n2)cc1O)c1ccc(Cl)cc1` [4-Chloro-N-{4-[4-((3R,5S)-3,5-diamino-piperidin-1-yl)-6-((3R,4S)-3,4-diamino-pyrrolidsin-1-yl)-[1,3,5]triazin-2-ylamino]-2-hydroxy-phenyl}-benzamide] stands less than 64 µg/mL; under `N[C@@H]1C[C@H](N)CN(c2nc(NCCN3CCNC3=O)nc(Nc3ccc(NC(=O)c4ccc(Cl)cc4)c(O)c3)n2)C1` [4-Chloro-N-{4-[4-((3S,5R)-3,5-diamino-piperidin-1-yl)-6-[2-(2-oxo-imidazolidin-1-yl)-ethylamino]-[1,3,5]triazin-2-ylamino}-2-hydroxy-phenyl)-benzamide], less than 64 µg/mL; under `CCOC(=O)c1ccc(Nc2nc(N3C[C@H](N)C[C@H](N)C3)nc(N3C[C@H](N)C[C@H](N)C3)n2)cc1` [4-[4,6-Bis-((3R,5S)-3,5-diamino-piperidin-1-yl)-[1,3,5]triazin-2-ylamino]-benzoic acid ethyl ester], greater than 64 µg/mL.
On the same count and under the same terms, under `Cc1cc(Br)ccc1Nc1nc(N2CCCCC2)nc(N2CCCCC2)n1.Cl` [4-[4,6-Bis-((3R,5S)-3,5-diamino-piperidin-1-yl)-[1,3,5]triazin-2-ylammino]-benzoic acid methyl ester] stands greater than 64 µg/mL; under `Cl.N[C@@H]1C[C@H](N)CN(c2nc(N3C[C@H](N)C[C@H](N)C3)nc(N3CCc4cc(Br)ccc43)n2)C1` [4-[4-(4,6-Bis-((3R,5S)-3,5-diamino-piperidin-1-yl)-[1,3,5]triazin-2-yl)-piperiazin-1-yl]-phenol], less than 64 µg/mL; under `CC(=O)N1CCN(c2nc(Nc3ccc(S(=O)(=O)Nc4ccc5cn[nH]c5c4)cc3)nc(N3C[C@H](N)C[C@H](N)C3)n2)CC1` [4-[4-(4-Acetyl-piperazin-1-yl)-6-((3R,5S)-3,5-diamino-piperidin-1-yl)-[1,3,5]triazin-2-ylamino]-N-(1H-indazol-6-yl)-benzenesulfonamide], greater than 64 µg/mL.

Staying with this test, now noted: Escherichia coli, 18 h, read-out: Potency (MIC).
Regarding `NC[C@@H]1C[C@H](CN)CN(c2nc(Nc3ccc(C(=O)CC(=O)Nc4ccccc4Cl)cc3)nc(N3C[C@H](N)C[C@H](N)C3)n2)C1` [3-{4-[4-((3R,5S)-3,5-Bis-(aminomethyl)-piperidin-1-yl)-6-((3R,5S)-3,5-diamino-piperidin-1-yl)-[1,3,5]triazin-2-ylamino]-phenyl}-N-(2-chloro-phenyl)-3-oxo-propionamide], the MIC was less than 64 µg/mL.
Still for that read-out and setting: next, `COc1nc(Nc2ccc(C(=O)CC(=O)Nc3ccc4c(c3)OC(F)(F)O4)cc2)nc(N2C[C@H](N)C[C@H](N)C2)n1` [3-{4-[4-((3R,5S)-3,5-Diamino-piperidin-1-yl)-6-methoxy-[1,3,5]triazin-2-ylamino]-phenyl}-N-(2,2-difluoro-benzo[1,3]dioxol-5-yl)-3-oxo-propionamide]: less than 16 µg/mL; `COc1nc(Nc2ccc(C(=O)CC(=O)Nc3ccc(F)c(F)c3)cc2)nc(N2C[C@H](N)C[C@H](N)C2)n1` [3-{4-[4-((3R,5S)-3,5-Diamino-piperidin-1-yl)-6-methoxy-[1,3,5]triazin-2-ylamino]-phenyl}-N-(3,4-difluoro-phenyl)-3-oxo-propionamide]: less than 16 µg/mL; `N[C@@H]1C[C@H](N)CN(c2nc(Nc3ccc(NC(=O)c4ccc(Cl)cc4)c(O)c3)nc(N3CCN(CC(=O)N4CCOCC4)CC3)n2)C1` [4-Chloro-N-(4-{4-((3S,5R)-3,5-diamino-piperidin-1-yl)-6-[4-(2-morpholin-4-yl-2-oxo-ethyl)-piperazin-1-yl]-[1,3,5]triazin-2-ylamino}-2-hydroxy-phenyl)-benzamide]: greater than 64 µg/mL.
On to `COc1nc(Nc2ccc(NC(=O)c3ccc(Cl)cc3)c(O)c2)nc(N2C[C@H](N)C[C@H](N)C2)n1` [4-Chloro-N-{4-[4-((3R,5S)-3,5-diamino-piperidin-1-yl)-6-methoxy-[1,3,5]triazin-2-ylamino]-2-hydroxy-phenyl}-benzamide], for which the MIC is less than 16 µg/mL.
Same read-out and setting: under `N[C@@H]1C[C@H](N)CN(c2nc(Nc3ccc(NC(=O)c4ccc(Cl)cc4)c(O)c3)nc(N3CCN(c4ccncc4)CC3)n2)C1` [4-Chloro-N-{4-[4-((3S,5R)-3,5-diamino-piperidin-1-yl)-6-(4-pyridin-4-yl-piperazin-1-yl)-[1,3,5]triazin-2-ylamino]-2-hydroxy-phenyl}-benzamide] stands less than 64 µg/mL.
The same measure, in the same setting: under `N[C@@H]1C[C@H](N)CN(c2nc(Nc3ccc(NC(=O)c4ccc(Cl)cc4)c(O)c3)nc(N3CCC(N4CCCC4)CC3)n2)C1` [4-Chloro-N-{4-[4-((3S,5R)-3,5-diamino-piperidin-1-yl)-6-(4-pyrrolidin-1-yl-piperidin-1-yl)-[1,3,5]triazin-2-ylamino]-2-hydroxy-phenyl}-benzamide] stands less than 64 µg/mL; under `N[C@@H]1C[C@H](N)CN(c2nc(Nc3ccc(NC(=O)c4ccc(Cl)cc4)c(O)c3)nc(N3C[C@H](O)C[C@@H](O)C3)n2)C1` [4-Chloro-N-{4-[4-((3S,5R)-3,5-diamino-piperidin-1-yl)-6-((3R,5R)-3,5-dihydroxy-piperidin-1-yl)-[1,3,5]triazin-2-ylamino]-2-hydroxy-phenyl}-benzamide], less than 64 µg/mL; under `N[C@@H]1C[C@H](N)CN(c2nc(Nc3ccc(NC(=O)c4ccc(Cl)cc4)c(O)c3)nc(NC3CCCNC3)n2)C1` (stereo partly drawn) [4-Chloro-N-{4-[4-((3S,5R)-3,5-diamino-piperidin-1-yl)-6-(piperidin-3-ylamino)-[1,3,5]triazin-2-ylamino]-2-hydroxy-phenyl}-benzamide], less than 16 µg/mL.
For the compound `N[C@@H]1C[C@H](N)CN(c2nc(Nc3ccc(NC(=O)c4ccc(Cl)cc4)c(O)c3)nc(N3CCNCC3)n2)C1` [4-Chloro-N-{4-[4-((3S,5R)-3,5-diamino-piperidin-1-yl)-6-piperazin-1-yl-[1,3,5]triazin-2-ylamino]-2-hydroxy-phenyl}-benzamide], the MIC was less than 16 µg/mL.
Same read-out and setting: next, `NC[C@@H]1C[C@H](N)CN1c1nc(Nc2ccc(C(=O)Oc3ccccc3)c(O)c2)nc(N2C[C@H](N)C[C@H](N)C2)n1` [4-[4-((2S,4S)-4-Amino-2-aminomethyl-pyrrolidin-1-yl)-6-((3R,5S)-3,5-diamino-piperidin-1-yl)-[1,3,5]triazin-2-ylamino]-2-hydroxy-benzoic acid phenyl ester]: less than 16 µg/mL.
Still for that read-out and setting: under `NC[C@@H]1C[C@H](N)CN1c1nc(Nc2ccc(S(=O)(=O)Nc3ccc4cn[nH]c4c3)cc2)nc(N2C[C@H](N)C[C@H](N)C2)n1` [4-[4-((2S,4S)-4-Amino-2-aminomethyl-pyrrolidin-1-yl)-6-((3R,5S)-3,5-diamino-piperidin-1-yl)-[1,3,5]triazin-2-ylamino]-N-(1H-indazol-6-yl)-benzenesulfonamide] stands greater than 64 µg/mL.
The same measure, in the same setting: next, `NC(=O)c1ccc(Nc2nc(N3C[C@H](N)C[C@H](N)C3)nc(N3C[C@@H](N)C[C@H]3CO)n2)cc1O` [4-[4-((2S,4S)-4-Amino-2-hydroxymethyl-pyrrolidin-1-yl)-6-((3R,5S)-3,5-diamino-piperidin-1-yl)-[1,3,5]triazin-2-ylamino]-2-hydroxy-benzamide]: greater than 64 µg/mL; `N[C@@H]1C[C@H](N)CN(c2nc(Nc3ccc(S(=O)(=O)Nc4ccc5cn[nH]c5c4)cc3)nc(N3C[C@@H](N)C[C@H]3CO)n2)C1` [4-[4-((2S,4S)-4-Amino-2-hydroxymethyl-pyrrolidin-1-yl)-6-((3R,5S)-3,5-diamino-piperidin-1-yl)-[1,3,5]triazin-2-ylamino]-N-(1H-indazol-6-yl)-benzenesulfonamide]: greater than 64 µg/mL.
`NC[C@@H]1C[C@H](CN)CN(c2nc(Nc3ccc(C(=O)Oc4ccccc4)c(O)c3)nc(N3C[C@H](N)C[C@H](N)C3)n2)C1` [4-[4-((3R,5S)-3,5-Bis-(aminomethyl)-piperidin-1-yl)-6-((3R,5S)-3,5-diamino-piperidin-1-yl)-[1,3,5]triazin-2-ylamino]-2-hydroxy-benzoic acid phenyl ester]: the MIC is less than 64 µg/mL.

Still in this test, the particulars now being: MIC in E. coli or S. aureus; two-fold serial dilutions 64 to 0.5 μg/ml in duplicate; 18 hours of incubation at 35° C.
As to `NC[C@H]1[C@@H](O)CCN1c1nc(Nc2ccc(C(=O)Oc3ccccc3)c(O)c2)nc(N2C[C@H](N)C[C@H](N)C2)n1` [4-[4-((2S,3S)-2-Aminomethyl-3-hydroxy-pyrrolidin-1-yl)-6-((3R,5S)-3,5-diamino-piperidin-1-yl)-[1,3,5]triazin-2-ylamino]-2-hydroxy-benzoic acidphenylester], the “Potency (MIC)” value is recorded as “− (− means MIC>64 μg/ml in E. coli or S. aureus)”.
Same read-out and setting: under `NC[C@@H]1C[C@@H](O)CN1c1nc(Nc2ccc(S(=O)(=O)Nc3ccc4cn[nH]c4c3)cc2)nc(N2C[C@H](N)C[C@H](N)C2)n1` [4-[4-((2S,4R)-2-Aminomethyl-4-hydroxy-pyrrolidin-1-yl)-6-((3R,5S)-3,5-diamino-piperidin-1-yl)-[1,3,56]triazin-2-ylamino]-N-(1H-indazol-6-yl)-benzenesulfonamide] stands “− (− means MIC>64 μg/ml in E. coli or S. aureus)”; under `NC[C@@H]1CN(c2nc(Nc3ccc(C(=O)Oc4ccccc4)c(O)c3)nc(N3C[C@H](N)C[C@H](N)C3)n2)CC[C@@H]1O` [4-[4-((3R,4S)-3-Aminomethyl-4-hydroxy-piperidin-1-yl)-6-((3R,5S)-3,5-diamino-piperidin-1-yl)-[1,3,5]triazin-2-ylamino]-2-hydroxy-benzoic acidphenylester], “− (− means MIC>64 μg/ml in E. coli or S. aureus)”.
With `NC[C@@H]1CN(c2nc(Nc3ccc(S(=O)(=O)Nc4ccc5cn[nH]c5c4)cc3)nc(N3C[C@H](N)C[C@H](N)C3)n2)CC[C@@H]1O` [4-[4-((3R,4S)-3-Aminomethyl-4-hydroxy-piperidin-1-yl)-6-((3RE,5S)-3,5-diamino-piperidin-1-yl)-[1,3,5]triazin-2-ylamino]-N-(1H-indazol-6-yl)-benzenesulfonamide], the “Potency (MIC)” value is recorded as “− (− means MIC>64 μg/ml in E. coli or S. aureus)”.

A word on the MIC: it is the lowest concentration found to suppress growth.
